Measured values reported in patent publication US20220389477A1, “METHOD FOR EVALUATING ANTIBIOTIC SUSCEPTIBILITY” (Vrije Universiteit Brussel, priority 2019, published 2022).
≈ marks a conversion by molar mass, not a printed value.

Legend:
Assay type in all cases: cell-based
Streptococcus Pneumoniae [1] = assay: BMD, broth + horse blood trial
Streptococcus Pneumoniae [2] = assay: E-test, broth + horse blood trial
Method: Tables 14 and 15 show the results of experiment whereby a bacteria culture is grown in blood instead of broth. The experiments of Table 14 were conducted by illuminating the light-transmissive wells with a light having a wavelength of 635 nm. The experiments of Table 15 were conducted by illuminating the light-transmissive wells with a light having a wavelength of 650 nm. […] The determination of the best wavelength may or may not be based on the commercial availability of the spectral line. The choice of the optimal wavelength may or may not be determined by calculating the absorbance for various wavelengths. The choice of the optimal wavelength can also be based on the combination of the comparison with the other two methods, the commercial availability and on the calculation of the absorbance for various wavelengths.

Streptococcus Pneumoniae [3] = assay: Optical third-derivative MIC method (MICSTRIP), broth + horse blood; conditions: for MICSTRIP (MIC): broth + horse blood
Excerpt: (§1) The method of FIG. 1 starts at a time equal to zero, t0 (1). Preferably, said t0 is the moment a pure bacteria culture is finished being prepared. Alternatively, said t0 is the moment all wells contain both said bacteria culture and said antimicrobial drug. After the starting of the experiment each well is periodically illuminated with a light source and the intensity of the transmitted light is detected with a photodetector (2). Preferably, each well is illuminated and the intensity of the transmitted light is detected every hour (2). More preferably, each well is illuminated and the intensity of the transmitted light is detected every 5 to 15 min. After a predetermined time length, preferably after 4 hours, a first, a second and a third derivative of said measured intensity is calculated (3) in a first and a second time frame for each well. Preferably, said second time frame is the last measured time frame after the test has been running for said predetermined time length, and said first time frame is the time frame preceding the second time frame. More preferably, said first time frame is between two and three hours and said second time frame is between three and four hours. After the calculation of said derivatives, said first derivative in said second time frame of said reference well is compared to a growth speed threshold value (4). Preferably, said growth speed threshold value is 0.166 (4). If said first derivative in said second time frame of said reference well is larger than or equal to said growth speed threshold value said bacteria culture is classified as Type I (4). If said first derivative in said second time frame of said reference well is smaller than said growth speed threshold value said bacteria culture is classified as Type II (4). Subsequently, independent of the classification of the bacteria culture according to the two types, the method comprises the following steps which are performed for each well or for all wells except said reference well. Both said first and said second time frames are evaluated to see if there is an inflection point present in the second derivative in said first and/or said second time frame (5).
(§2) If said first and/or said second time frame comprise said inflection point than said third derivative in said first time frame is compared to said third derivative in said second time frame (6). If said third derivative in said first time frame is larger than said third derivative in said second time frame, then said first time frame and said second time frame are selected as a first and second time frame to be used in a minimal inhibitory concentration determination method (10). If said third derivative in said first time frame is not larger than said third derivative in said second time frame, then said well is illuminated again after a certain time period, preferably an hour, more preferably 5 to 15 min after said predetermined time length said, with a light source and the intensity of the transmitted light is detected with a photodetector forming a new time frame subsequent to said second time frame (7). A third derivative, and possibly also a first and/or a second derivative, is calculated in said new time frame (7). Further, in step (7) a new first time frame is put equal to said second time frame and a new second time frame to equal to said new time frame. Subsequently, said third derivative in said new first time frame is compared to said third derivative in said new second time frame (8). If said derivative in said new first time frame is larger than said third derivative in said new second time frame, then said new first time frame and said new second time frame are selected as a first and second time frame to be used in a minimal inhibitory concentration determination method (10). […]

[4] = test system: Pseudomonas aeruginosa culture; assay: Optical third-derivative MIC method, culture in broth; conditions: for MIC: Pseudomonas aeruginosa
Excerpt: as §1, §2

[5] = test system: Pseudomonas aeruginosa culture; assay: Broth microdilution (BMD)
[6] = test system: Pseudomonas aeruginosa culture; assay: E-test; conditions: culture PA/2472

BMD (MIC) (Streptococcus Pneumoniae [1]; strain 2532) [mg/L]	BMD (MIC) (Streptococcus Pneumoniae [1]; strain 2543) [mg/L]	BMD (MIC) (Streptococcus Pneumoniae [1]; strain 2544) [mg/L]	BMD (MIC) (Streptococcus Pneumoniae [1]; strain ATCC 49619) [mg/L]	E-test (MIC) (Streptococcus Pneumoniae [2]; strain 2543) [mg/L]	E-test (MIC) (Streptococcus Pneumoniae [2]; strain 2544) [mg/L]	E-test (MIC) (Streptococcus Pneumoniae [2]; strain ATCC 49619) [mg/L]	MICSTRIP (MIC) (Streptococcus Pneumoniae [3]; strain 2532, 635 nm) [mg/L]	MICSTRIP (MIC) (Streptococcus Pneumoniae [3]; strain 2532, 650 nm) [mg/L]	MICSTRIP (MIC) (Streptococcus Pneumoniae [3]; strain 2543, 635 nm) [mg/L]	MICSTRIP (MIC) (Streptococcus Pneumoniae [3]; strain 2543, 650 nm) [mg/L]	MICSTRIP (MIC) (Streptococcus Pneumoniae [3]; strain 2544, 635 nm) [mg/L]	MICSTRIP (MIC) (Streptococcus Pneumoniae [3]; strain 2544, 650 nm) [mg/L]	MICSTRIP (MIC) (Streptococcus Pneumoniae [3]; strain ATCC 49619, 635 nm) [mg/L]	MICSTRIP (MIC) (Streptococcus Pneumoniae [3]; strain ATCC 49619, 650 nm) [mg/L]	SMILES	HR E-test (Streptococcus Pneumoniae [2]; strain 2532)	HR E-test (Streptococcus Pneumoniae [2]; strain 2543)	HR E-test (Streptococcus Pneumoniae [2]; strain 2544)	HR E-test (Streptococcus Pneumoniae [2]; strain ATCC 49619)	HR MICSTRIP (Streptococcus Pneumoniae [3]; strain ATCC 49619, 650 nm)	other results
0.016	2	0.256	0.256	1.5	0.1	0.25	0.016	0.016	1	1	0.256	0.256	0.256	0.256	CC1(C)S[C@@H]2[C@H](NC(=O)Cc3ccccc3)C(=O)N2[C@H]1C(=O)O [Benzyl-penicilline]	no	no	no	no	no (If the ratio of the MIC value in the second time frame over the MIC value in the first time frame is lower than or equal to 4 then the ratio is labelled not to be heteroresistant)	HR MICSTRIP (Streptococcus Pneumoniae [3]; strain 2543, 635 nm): no (If the ratio of the MIC value in the second time frame over the MIC value in the first time frame is lower than or equal to 4 then the ratio is labelled not to be heteroresistant); HR MICSTRIP (Streptococcus Pneumoniae [3]; strain 2543, 650 nm): no (If the ratio of the MIC value in the second time frame over the MIC value in the first time frame is lower than or equal to 4 then the ratio is labelled not to be heteroresistant); HR MICSTRIP (Streptococcus Pneumoniae [3]; strain ATCC 49619, 635 nm): no (If the ratio of the MIC value in the second time frame over the MIC value in the first time frame is lower than or equal to 4 then the ratio is labelled not to be heteroresistant)
0.008	0.256	0.064	0.064	0.125	0.024	0.047	0.016	0.016	0.256	0.256	0.064	0.064	0.032	> 16	CO/N=C(\C(=O)N[C@@H]1C(=O)N2C(C(=O)O)=C(CSc3nc(=O)c(=O)[nH]n3C)CS[C@H]12)c1csc(N)n1 [Ceftriaxone]	no	no	no	no	no (If the ratio of the MIC value in the second time frame over the MIC value in the first time frame is lower than or equal to 4 then the ratio is labelled not to be heteroresistant)	E-test (MIC) (Streptococcus Pneumoniae [2]; strain 2532): ≤ 0.16 mg/L
															CO/N=C(\C(=O)N[C@@H]1C(=O)N2C(C(=O)[O-])=C(C[N+]3(C)CCCC3)CS[C@H]12)c1csc(N)n1 [cefepime]						MIC ([4]; PA/2467, 5 h-6 h, only time frame, omitted from determination (Type II), read-out: MIC (25%)): 8 mg/L (≈ 16.6 µM); MIC ([4]; PA/2467, 5 h-6 h, only time frame, read-out: MIC (40%)): 8 mg/L (≈ 16.6 µM); MIC ([4]; PA/2467, 5 h-6 h, only time frame, read-out: MIC (60%)): 4 mg/L (≈ 8.32 µM); MIC ([4]; PA/2467, 5 h-6 h, only time frame, read-out: MIC (75%)): 4 mg/L (≈ 8.32 µM); MIC ([4]; PA/2467, FIG. 5F, overall conclusion, read-out: MIC value determined by the method): 8 mg/L (≈ 16.6 µM); MIC ([5]; culture PA/2467): 16 mg/L (≈ 33.3 µM)
															CC(C)(O/N=C(\C(=O)N[C@@H]1C(=O)N2C(C(=O)[O-])=C(C[n+]3ccccc3)CS[C@H]12)c1csc(N)n1)C(=O)O [ceftazidime]						heteroresistance determined by the method ([4]; PA/2472, FIG. 5E, overall conclusion): not heteroresistant; HR? at MIC (40%) ([4]; PA/2472, ratio MIC T2/T1): no (If the ratio of the MIC value in the second time frame over the MIC value in the first time frame is lower than or equal to 4 then the ratio is labelled not to be heteroresistant); HR? at MIC (60%) ([4]; PA/2472, ratio MIC T2/T1): no (If the ratio of the MIC value in the second time frame over the MIC value in the first time frame is lower than or equal to 4 then the ratio is labelled not to be heteroresistant); HR? at MIC (75%) ([4]; PA/2472, ratio MIC T2/T1): no (If the ratio of the MIC value in the second time frame over the MIC value in the first time frame is lower than or equal to 4 then the ratio is labelled not to be heteroresistant); HR? at MIC (25%) ([4]; PA/2472, ratio MIC T2/T1, omitted (Type II)): no (If the ratio of the MIC value in the second time frame over the MIC value in the first time frame is lower than or equal to 4 then the ratio is labelled not to be heteroresistant); MIC ([4]; PA/2472, 3 h-4 h, omitted from determination (Type II), read-out: MIC (25%) T1): 64 mg/L (≈ 117 µM); MIC ([4]; PA/2472, 3 h-4 h, read-out: MIC (40%) T1): 32 mg/L (≈ 58.5 µM); MIC ([4]; PA/2472, 3 h-4 h, read-out: MIC (60%) T1): 32 mg/L (≈ 58.5 µM); MIC ([4]; PA/2472, 3 h-4 h, read-out: MIC (75%) T1): 32 mg/L (≈ 58.5 µM); MIC ([4]; PA/2472, 5 h-6 h, omitted from determination (Type II), read-out: MIC (25%) T2): 64 mg/L (≈ 117 µM); MIC ([4]; PA/2472, 5 h-6 h, read-out: MIC (40%) T2): 32 mg/L (≈ 58.5 µM); MIC ([4]; PA/2472, 5 h-6 h, read-out: MIC (60%) T2): 32 mg/L (≈ 58.5 µM); MIC ([4]; PA/2472, 5 h-6 h, read-out: MIC (75%) T2): 32 mg/L (≈ 58.5 µM); MIC ([4]; PA/2472, FIG. 5E, overall conclusion, read-out: MIC value determined by the method): 32 mg/L (≈ 58.5 µM); MIC ([6]; Pseudomonas aeruginosa): 32 mg/L (≈ 58.5 µM); HR? (E-test) [6]: no; MIC ([5]; culture PA/2472): 32 mg/L (≈ 58.5 µM)
